Laboratory results as given in patent US20260207718A1, “METHODS FOR TREATING LATE ONSET POMPE DISEASE IN PEDIATRIC PATIENTS” (Amicus Therapeutics, Inc., priority 2022, published 2026).
Like-named read-outs stand apart in the source and are kept apart here.

How the values were obtained:
[1] = tested on: pediatric subjects with late-onset Pompe disease; experiment: ATB200-04 trial: safety in pediatric subjects with LOPD; type: in vivo, human; details: ERT-experienced subject, Cohort 2
Text: This study includes subjects with Pompe disease except classic IOPD.
Safety assessments include monitoring of adverse events (AEs), clinical laboratory tests (chemistry, hematology, and urinalysis), physical examinations, vital signs, 12-lead electrocardiogram (ECGs), and detection of cipaglucosidase alfa antibodies.

[2] = ATB200-04 trial: population PK exposure matching of adolescents to adults; type: in vivo, human; details: for AUC(0-t) / Cmax: human, plasma
Text: The ATB200-04 trial seeks to evaluate the safety and tolerability of cipaglucosidase alfa/miglustat co-administration.
Subjects have scheduled PK assessments at Day 1, Week 26, and Week 52 for plasma total GAA protein and miglustat.
Population PK parameters include clearance (CL) and volume of distribution (V), estimated from total GAA protein concentrations and miglustat concentrations in plasma.
Methods for Exposure Matching. Pediatric PK data from both clinical trials and expanded access programs were used for exposure matching to adult PK data. […] The previous base population PK models from cipaglucosidase alfa-atga and miglustat were rerun with the updated dataset. To account for longitudinal changes in body size for pediatric patients, the time-varying body weight was used to estimate the effects of body size on PK parameters in the population PK models. The effect of age at baseline on clearance was also evaluated in the PK models. Individual AUC0-24 and Cmax of cipaglucosidase alfa and miglustat were predicted from the PK empirical Bayes estimates (EBEs). The time-varying body weight and baseline age in pediatrics were used in the exposure prediction. PK exposures (AUC0-24 and Cmax) were predicted for each PK visit during the study; Day 1-baseline, Week 26, and Week 52. Additionally, there were unscheduled PK visits for some subjects.
Results for Adolescent Subjects. […] The dose may have been adjusted at a later visit for exposure matching. It should be noted however, that in the early stage of the study, all subjects were started at 20 mg/kg to evaluate safety.

CCCCN1C[C@H](O)[C@@H](O)[C@H](O)[C@H]1CO [miglustat, (2R,3R,4R,5S)-1-butyl-2-(hydroxymethyl) piperidine-3,4,5-triol]
investigator-assessed relatedness of anaphylaxis event (both episodes) [1]: unrelated | predicted AUC0-24 and Cmax for adolescents relative to adult 5th and 95th percentile range ([2]; adults N=100, adolescents N=8): for most adolescents are within the adult 5th and 95th percentile range | AUC(0-t) ([2]; oral, miglustat, predicted, Adults N=100, read-out: AUC0-24, Geo Mean): 20400 ng·h/mL | AUC(0-t) ([2]; oral, miglustat, predicted, Adults N=100, read-out: AUC0-24, Mean): 20700 ng·h/mL | AUC(0-t) ([2]; oral, miglustat, predicted, Adults N=100, read-out: AUC0-24, Median): 20700 ng·h/mL | AUC(0-t) ([2]; oral, miglustat, predicted, Adults N=100, read-out: AUC0-24, P5): 15200 ng·h/mL | AUC(0-t) ([2]; oral, miglustat, predicted, Adults N=100, read-out: AUC0-24, P95): 28300 ng·h/mL | Cmax ([2]; oral, miglustat, predicted, Adults N=100, read-out: Cmax, Geo Mean): 2370 ng/mL | Cmax ([2]; oral, miglustat, predicted, Adults N=100, read-out: Cmax, Mean): 2420 ng/mL | Cmax ([2]; oral, miglustat, predicted, Adults N=100, read-out: Cmax, Median): 2370 ng/mL | Cmax ([2]; oral, miglustat, predicted, Adults N=100, read-out: Cmax, P5): 1720 ng/mL | Cmax ([2]; oral, miglustat, predicted, Adults N=100, read-out: Cmax, P95): 3280 ng/mL | AUC(0-t) ([2]; po, 195 mg, adolescent Subject 5, 195 mg, Week 52, 43.7 kg, read-out: individual predicted AUC0-24): 21000 ng·h/mL | Cmax ([2]; po, 195 mg, adolescent Subject 5, 195 mg, Week 52, 43.7 kg, read-out: individual predicted Cmax): 2330 ng/mL | AUC(0-t) ([2]; po, 195 mg, adolescent Subject 6, 195 mg, Week 52, 36.5 kg, read-out: individual predicted AUC0-24): 13500 ng·h/mL | Cmax ([2]; po, 195 mg, adolescent Subject 6, 195 mg, Week 52, 36.5 kg, read-out: individual predicted Cmax): 1700 ng/mL | AUC(0-t) ([2]; po, 260 mg, adolescent Subject 1, 260 mg, Week 52, 77.9 kg, read-out: individual predicted AUC0-24): 20400 ng·h/mL | Cmax ([2]; po, 260 mg, adolescent Subject 1, 260 mg, Week 52, 77.9 kg, read-out: individual predicted Cmax): 2960 ng/mL | AUC(0-t) ([2]; po, 260 mg, adolescent Subject 2, 260 mg, Week 52, 83.8 kg, read-out: individual predicted AUC0-24): 17100 ng·h/mL | Cmax ([2]; po, 260 mg, adolescent Subject 2, 260 mg, Week 52, 83.8 kg, read-out: individual predicted Cmax): 1910 ng/mL | AUC(0-t) ([2]; po, 260 mg, adolescent Subject 3, 260 mg, Week 52, 64.6 kg, read-out: individual predicted AUC0-24): 20300 ng·h/mL | Cmax ([2]; po, 260 mg, adolescent Subject 3, 260 mg, Week 52, 64.6 kg, read-out: individual predicted Cmax): 2170 ng/mL | AUC(0-t) ([2]; po, 260 mg, adolescent Subject 4, 260 mg, Week 64, 53.3 kg, read-out: individual predicted AUC0-24): 22300 ng·h/mL | Cmax ([2]; po, 260 mg, adolescent Subject 4, 260 mg, Week 64, 53.3 kg, read-out: individual predicted Cmax): 2590 ng/mL | AUC(0-t) ([2]; po, 260 mg, adolescent Subject 7, 260 mg, Week 52, 60.3 kg, read-out: individual predicted AUC0-24): 15000 ng·h/mL | Cmax ([2]; po, 260 mg, adolescent Subject 7, 260 mg, Week 52, 60.3 kg, read-out: individual predicted Cmax): 1850 ng/mL | AUC(0-t) ([2]; po, 260 mg, adolescent Subject 8, 260 mg, Week 72, 38.5 kg, read-out: individual predicted AUC0-24): 19600 ng·h/mL | Cmax ([2]; po, 260 mg, adolescent Subject 8, 260 mg, Week 72, 38.5 kg, read-out: individual predicted Cmax): 1800 ng/mL | AUC(0-t) ([2]; po, miglustat, predicted, Adolescents N=8, read-out: AUC0-24, Geo Mean): 18400 ng·h/mL | AUC(0-t) ([2]; po, miglustat, predicted, Adolescents N=8, read-out: AUC0-24, Mean): 18700 ng·h/mL | AUC(0-t) ([2]; po, miglustat, predicted, Adolescents N=8, read-out: AUC0-24, Median): 20000 ng·h/mL | AUC(0-t) ([2]; po, miglustat, predicted, Adolescents N=8, read-out: AUC0-24, P5): 14100 ng·h/mL | AUC(0-t) ([2]; po, miglustat, predicted, Adolescents N=8, read-out: AUC0-24, P95): 21800 ng·h/mL | Cmax ([2]; po, miglustat, predicted, Adolescents N=8, read-out: Cmax, Geo Mean): 2130 ng/mL | Cmax ([2]; po, miglustat, predicted, Adolescents N=8, read-out: Cmax, Mean): 2160 ng/mL | Cmax ([2]; po, miglustat, predicted, Adolescents N=8, read-out: Cmax, Median): 2040 ng/mL | Cmax ([2]; po, miglustat, predicted, Adolescents N=8, read-out: Cmax, P5): 1740 ng/mL | Cmax ([2]; po, miglustat, predicted, Adolescents N=8, read-out: Cmax, P95): 2830 ng/mL | Cmax, geometric LSM Ratio adolescents to adults ([2]; miglustat, 90% CI (79.51, 101.54)): 89.85 | AUC0-24, geometric LSM Ratio adolescents to adults ([2]; miglustat, 90% CI (80.58, 101.21)): 90.31
